{
  "source": "patent US20230075822A1",
  "about": "“USE OF CASTALAGIN OR ANALOGS THEREOF FOR ANTI-CANCER EFFICACY AND TO INCREASE THE RESPONSE TO IMMUNE CHECKPOINT INHIBITORS” (THE ROYAL INSTITUTION FOR THE ADVANCEMENT OF …, priority 2020, published 2023)",
  "key": {"MCA-205 sarcoma": {"system": "MCA-205 sarcoma", "assay": "Avatar mice: FMT from responder (R) / non-responder (NR) NSCLC patients, MCA-205 tumors", "format": "in vivo, C57BL/6 mice", "experimental": "FIG. 5A is a schematic of the experimental design of avatar mice experiments. FMT from feces samples from Non-responders (NR) and responders (R) Non-small cell lung cancer (NSCLC) patients were individually performed after 3 days of ATB in SPF C57BI6 mice. Two weeks later, MCA-205 sarcoma cells were inoculated and daily gavage with water or CC were performed in combination with sequential injections of αPD-1 or IsoPD-1 mAb.\nFIG. 11A is a graph showing the effect of castalagin (0.85 mg/kg) in the presence or not of anti-PD-1 on tumor growth kinetics in the in the ATB-avatar model after FMT from 1 NR NSCLC patient with daily gavage with castalagin or water in combination with αPD1 mAb or IsoPD-1. Unpaired t-tests were used. Means ±SEM are represented. *p<0.05. […]\nFecal microbiota transplantation (FM7) experiments. FMT was performed as previously published Routy et al. by thawing fecal material from 5 different Non-Small cell lung cancer (NSCLC) patients amenable to immune checkpoint blockers (ICI after appropriate ethics approval at the Centre de recherche du Centre hospitalier de l'Université de Montréal (CRCHUM) in Montreal. Patient records were retrospectively analyzed to identify their response status. Two weeks after FMT, tumor cells were injected subcutaneously and mice were treated with anti-PD-1 mAb or isotype control +/− CC, castalagin or water as described above."}, "CD8^+ T cells": {"system": "CD8^+ T cells", "assay": "Flow cytometry immune profiling of TILs, MCA-205 tumor model", "format": "in vivo, C57BL/6 mice", "settings": "SPF mice, castalagin experiment", "experimental": "FIGS. 7A-C are graphs showing the results of immune cell profiling by flow cytometry in the murine MCA-205 (FIGS. 7A-B) or E0771 (FIG. 7C) tumor model treated with anti-PD-1 and/or CC. The tumors and the spleens were harvested 9 days or 19 days after the first injection of anti-PD-1 mAb into mice bearing MCA-205 or E0771 tumors, respectively. Excised tumors were cut into small pieces and digested in RPMI medium containing Liberase 25 μg/mL (Roche) and DNase1 at 150 Ul/mL (Roche) for 30 minutes at 37° C. and then crushed and filtered twice using 100 and 70 μm cell strainers (Becton & Dickinson). Spleens were crushed in RPMI medium and subsequently filtered through a 100 μm cell strainer. Two million tumor cells or splenocytes were pre-incubated with purified anti-mouse CD16/CD32 (clone 93; eBioscience) for 30 minutes at 4° C., before membrane staining (CD45, CD3, CD4, CD8, PD1, PDL1, ICOS, CXCR3, CCR9, CD45RB, CD62L, CD44). For intracellular staining, the Foxp3 staining kit (eBioscience) was used. Dead cells were excluded using the Live/Dead Fixable aqua blue dead cell stain kit (Life Technologies). […] FIG. 7C is a graph showing the activation of intratumoral CD8^+ T cells (as assessed by MFI of ICOS^+CD8^+ T cells by flow cytometry) in TILs in the E0771 tumor model post-treatment with CC +/−αPD-1. […]"}},
  "data": [
    {"smiles": "O=C1OC[C@H]2OC(=O)c3cc(O)c(O)c(O)c3-c3c(O)c(O)c(O)c4c3C(=O)O[C@H]([C@H]3OC(=O)c5c-4c(O)c(O)c(O)c5[C@@H]3O)[C@@H]2OC(=O)c2cc(O)c(O)c(O)c2-c2c1cc(O)c(O)c2O", "note": "[castalagin, Castalagin]", "values": [
      {"measurement": "antitumor activity (tumor growth)", "setting": "MCA-205 sarcoma; castalagin 0.85 mg/kg + αPD-1, post-FMT from NR NSCLC patients", "result": "additive effect when combined with αPD-1"},
      {"measurement": "antitumor activity (tumor growth)", "setting": "MCA-205 sarcoma; castalagin 0.85 mg/kg alone, post-FMT from NR NSCLC patients, ATB and GF conditions", "result": "able to restore antitumor activity"},
      {"measurement": "TCM CD8^+ T cells (CD45RB^−CD62L^+) in TILs", "setting": "CD8^+ T cells", "result": "upregulation of Tom CD8^+ T cells"}
    ]}
  ]
}
